This test deals with Tumor explants from TNBC patients. The test is described as follows: Ex-vivo tumor explant model, Ki67 IHC. Details: species or system human. Conditions: for Ki67 levels: paclitaxel 1 μM, 48 hours. On the procedure: To further establish the efficacy of these miRNAs in treating TNBC, we used ex-vivo tumor explant model. Freshly excised breast cancer tissues were dissected into 1 mm^3 specimens, placed on hydrated gelatin sponge in explant media supplemented with hydrocortisone and insulin at 37° C. in the CO2 incubator. Tumor explants from TNBC patients were treated with paclitaxel and tissues were gently removed, fixed in 10% neutral buffered formalin and processed for paraffin blocks. IHC analyses were conducted to determine the Ki67 levels. IHC of surgical specimens and explants reveal that explants retain the tissue architecture and proliferation properties of the original surgical specimen. […] FIG. 15.
Tumor explants growing on the gelatin sponge were treated with either sensitizer miRNA (75 nM) alone or paclitaxel (1 μM) alone or with miRNA (75 nM) and paclitaxel (1 μM) together. […] FIG. 16.

Molecules are shown by their SMILES.

The results in this text go back to patent publication US10617709B2, “miRNAs as novel therapeutic adjuvants and biomarkers for the prognosis and treatment of drug resistant breast cancers” (THE BOARD OF REGENTS OF THE UNIVERSITY OF TEXAS SYSTEM, priority 2012, dated 2020).

On to `CC(=O)O[C@H]1C(=O)[C@@]2(C)[C@H]([C@H](OC(=O)c3ccccc3)[C@]3(O)C[C@H](OC(=O)[C@H](O)[C@@H](NC(=O)c4ccccc4)c4ccccc4)C(C)=C1C3(C)C)[C@]1(OC(C)=O)CO[C@@H]1C[C@@H]2O` [paclitaxel], for which the “response to paclitaxel (Ki67 staining)” value (advanced stage TNBC explant) is on record as “not responsive”. For the same compound, the Ki67 staining entry (non-relapsed TNBC explant) is on record as “inhibition of Ki67 staining”. The Ki67 levels entry runs as follows: (relapsed / advanced stage TNBC explants, sensitizer miRNA 75 nM) “did not result in significant change”; (responsive TNBC (early stage cancer) explants) “significant inhibition of Ki67 levels”.
